From ChEMBL document CHEMBL1201861, “Genomics of Drug Sensitity in Cancer screening data, Wellcome Trust Sanger Institute”

Key:
[1] = tested on: COR-L105; experiment: cells; format: functional, cell-based, Homo sapiens; details: Homo sapiens, COR-L105
Description: SANGER: Inhibition of human COR-L105 cell growth in a cell viability assay.

[2] = tested on: COR-L279; experiment: SANGER: Inhibition of human COR-L279 cell growth in a cell viability assay.; format: functional, cell-based; details: Homo sapiens, COR-L279
[3] = tested on: DMS-53; experiment: cells; format: functional, cell-based, Homo sapiens; details: Homo sapiens, DMS-53;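 further: cell viability assay measuring growth inhibition of human DMS-53 cells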
Description: SANGER: Inhibition of human DMS-53 cell growth in a cell viability assay.

[4] = tested on: DV-90; experiment: cells; format: functional, cell-based, Homo sapiens; details: Homo sapiens, DV-90;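 further: Read-out is a viability assay, with IC50 reflecting the drop in DV-90 cell growth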
Description: SANGER: Inhibition of human DV-90 cell growth in a cell viability assay.

[5] = tested on: EB-3; experiment: cells; format: functional, cell-based, Homo sapiens; details: Homo sapiens, EB-3;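 further: human EB-3 cells, growth inhibition read out via a cell viability assay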
Description: SANGER: Inhibition of human EB-3 cell growth in a cell viability assay.

[6] = tested on: EB2; experiment: cells; format: functional, cell-based, Homo sapiens; details: Homo sapiens, EB2;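 further: growth inhibition of EB2 cells, read out with a cell viability assay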
Description: SANGER: Inhibition of human EB2 cell growth in a cell viability assay.

[7] = tested on: EFE-184; experiment: cells; format: functional, cell-based, Homo sapiens; details: Homo sapiens, EFE-184
Description: SANGER: Inhibition of human EFE-184 cell growth in a cell viability assay.

[8] = tested on: EHEB; experiment: cells; format: functional, cell-based, Homo sapiens; details: Homo sapiens, EHEB;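 further: growth inhibition of human EHEB cells, read out with a cell viability assay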
Description: SANGER: Inhibition of human EHEB cell growth in a cell viability assay.

[9] = tested on: FaDu; experiment: cells; format: functional, cell-based, Homo sapiens; details: Homo sapiens, FaDu;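 further: cell viability readout of growth inhibition in FaDu cells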
Description: SANGER: Inhibition of human FADU cell growth in a cell viability assay.

[10] = tested on: HCT-116; experiment: cells; format: functional, cell-based, Homo sapiens; details: Homo sapiens, HCT-116
Description: SANGER: Inhibition of human HCT-116 cell growth in a cell viability assay.

[11] = tested on: HMV-2 cell line; experiment: cells; format: functional, cell-based, Homo sapiens; details: Homo sapiens, HMV-2;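 further: growth inhibition of HMV-II cells, read out with a cell viability assay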
Description: SANGER: Inhibition of human HMV-II cell growth in a cell viability assay.

[12] = tested on: HSC-2; experiment: cells; format: functional, cell-based, Homo sapiens; details: Homo sapiens, HSC-2;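 further: growth inhibition of human HSC-2 cells, read out by a cell viability assay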
Description: SANGER: Inhibition of human HSC-2 cell growth in a cell viability assay.

[13] = tested on: KARPAS-422; experiment: cells; format: functional, cell-based, Homo sapiens; details: Homo sapiens, KARPAS-422
Description: SANGER: Inhibition of human KARPAS-422 cell growth in a cell viability assay.

[14] = tested on: MDA-MB-157; experiment: cells; format: functional, cell-based, Homo sapiens; details: Homo sapiens, MDA-MB-157
Description: SANGER: Inhibition of human MDA-MB-157 cell growth in a cell viability assay.

[15] = tested on: MEL-JUSO; experiment: cells; format: functional, cell-based, Homo sapiens; details: Homo sapiens, MEL-JUSO;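 further: growth inhibition of human MEL-JUSO cells, read out with a cell viability assay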
Description: SANGER: Inhibition of human MEL-JUSO cell growth in a cell viability assay.

[16] = tested on: MES-SA; experiment: cells; format: functional, cell-based, Homo sapiens; details: Homo sapiens, MES-SA;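 further: growth inhibition of human MES-SA cells, read out with a cell viability assay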
Description: SANGER: Inhibition of human MES-SA cell growth in a cell viability assay.

[17] = tested on: MRK-nu-1; experiment: cells; format: functional, cell-based, Homo sapiens; details: Homo sapiens, MRK-nu-1;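 further: cell viability assay measuring growth suppression of human MRK-nu-1 cells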
Description: SANGER: Inhibition of human MRK-nu-1 cell growth in a cell viability assay.

[18] = tested on: NCI-H1618; experiment: cells; format: functional, cell-based, Homo sapiens; details: Homo sapiens, NCI-H1618;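 further: growth inhibition of human NCI-H1618 cells, measured by a cell viability assay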
Description: SANGER: Inhibition of human NCI-H1618 cell growth in a cell viability assay.

[19] = tested on: NCI-H1734; experiment: cells; format: functional, cell-based, Homo sapiens; details: Homo sapiens, NCI-H1734;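 further: growth inhibition of human NCI-H1734 cells, read out with a cell viability assay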
Description: SANGER: Inhibition of human NCI-H1734 cell growth in a cell viability assay.

[20] = tested on: NCI-H322M; experiment: cells; format: functional, cell-based, Homo sapiens; details: Homo sapiens, NCI-H322M;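 further: cell viability assay measuring inhibition of growth of human NCI-H322M cells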
Description: SANGER: Inhibition of human NCI-H322M cell growth in a cell viability assay.

[21] = tested on: NCI-H838; experiment: cells; format: functional, cell-based, Homo sapiens; details: Homo sapiens, NCI-H838;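 further: growth inhibition of human NCI-H838 cells, read out by a cell viability assay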
Description: SANGER: Inhibition of human NCI-H838 cell growth in a cell viability assay.

[22] = tested on: P12-Ichikawa; experiment: cells; format: functional, cell-based, Homo sapiens; details: Homo sapiens, P12-Ichikawa
[23] = tested on: SK-N-AS; experiment: cells; format: functional, cell-based, Homo sapiens; details: Homo sapiens, SK-N-AS;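 further: growth inhibition of human SK-N-AS cells, measured with a cell viability assay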
Description: SANGER: Inhibition of human SK-N-AS cell growth in a cell viability assay.

[24] = tested on: SN12C; experiment: cells; format: functional, cell-based, Homo sapiens; details: Homo sapiens, SN12C;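 further: growth inhibition of human SN12C cells, measured by a cell viability assay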
Description: SANGER: Inhibition of human SN12C cell growth in a cell viability assay.

[25] = tested on: SW1990; experiment: cells; format: functional, cell-based, Homo sapiens; details: Homo sapiens, SW1990
Description: SANGER: Inhibition of human SW1990 cell growth in a cell viability assay.

[26] = tested on: T47D; experiment: cells; format: functional, cell-based, Homo sapiens; details: Homo sapiens, T47D;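 further: growth inhibition of human T47D cells, measured with a cell viability assay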
Description: SANGER: Inhibition of human T47D cell growth in a cell viability assay.

[27] = tested on: TALL-1; experiment: cells; format: functional, cell-based, Homo sapiens; details: Homo sapiens, TALL-1;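 further: growth inhibition of cultured human TALL-1 cells, read out by a cell viability assay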
Description: SANGER: Inhibition of human TALL-1 cell growth in a cell viability assay.

[28] = tested on: CWR22R; experiment: cells; format: functional, cell-based, Homo sapiens; details: Homo sapiens, 22Rv1;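 further: growth inhibition of 22Rv1 cells, read out with a cell viability assay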
Description: SANGER: Inhibition of human 22RV1 cell growth in a cell viability assay.

[29] = tested on: 769-P; experiment: cells; format: functional, cell-based, Homo sapiens; details: Homo sapiens, 769-P
Description: SANGER: Inhibition of human 769-P cell growth in a cell viability assay.

[30] = tested on: 8505C; experiment: cells; format: functional, cell-based, Homo sapiens; details: Homo sapiens, 8505C
Description: SANGER: Inhibition of human 8505C cell growth in a cell viability assay.

[31] = tested on: BC1 cell line; experiment: SANGER: Inhibition of human BC-1 cell growth in a cell viability assay.; format: functional, cell-based; details: Homo sapiens, BC1
[32] = tested on: BFTC-909; experiment: cells; format: functional, cell-based, Homo sapiens; details: Homo sapiens, BFTC-909
Description: SANGER: Inhibition of human BFTC-909 cell growth in a cell viability assay.

[33] = tested on: C-4-II; experiment: SANGER: Inhibition of human C-4-II cell growth in a cell viability assay.; format: functional, cell-based; details: Homo sapiens, C-4-II
[34] = tested on: CAL-148; experiment: cells; format: functional, cell-based, Homo sapiens; details: Homo sapiens, CAL-148
Description: SANGER: Inhibition of human CAL-148 cell growth in a cell viability assay.

[35] = tested on: CHP-126; experiment: cells; format: functional, cell-based, Homo sapiens; details: Homo sapiens, CHP-126
Description: SANGER: Inhibition of human CHP-126 cell growth in a cell viability assay.

## Oc1ccc2ccccc2c1SSc1c(O)ccc2ccccc12
[1]
  IC50: 7.36 µM
[2]
  IC50: > 32 µM
[3]
  IC50: > 32 µM
[4]
  IC50: > 32 µM
[5]
  IC50: 10.5 µM
[6]
  IC50: 4.49 µM
[7]
  IC50: > 32 µM
[8]
  IC50: 8.56 µM
[9]
  IC50: > 32 µM
[10]
  IC50: > 32 µM
[11]
  IC50: > 32 µM
[12]
  IC50: > 32 µM
[13]
  IC50: 7.84 µM
[14]
  IC50: > 32 µM
[15]
  IC50: > 32 µM
[16]
  IC50: 23.9 µM
[17]
  IC50: > 32 µM
[18]
  IC50: > 32 µM
[19]
  IC50: > 32 µM
[20]
  IC50: > 32 µM
[21]
  IC50: > 32 µM
[22]
  IC50: > 32 µM
[23]
  IC50: > 32 µM
[24]
  IC50: > 32 µM
[25]
  IC50: > 32 µM
[26]
  IC50: > 32 µM
[27]
  IC50: > 32 µM
[28]
  IC50: > 32 µM
[29]
  IC50: > 32 µM
[30]
  IC50: 11.2 µM
[31]
  IC50: > 32 µM
[32]
  IC50: > 32 µM
[33]
  IC50: > 32 µM
[34]
  IC50: > 32 µM
[35]
  IC50: 6.74 µM

## C=C(c1ccc(C(=O)O)cc1)c1cc2c(cc1C)C(C)(C)CCC2(C)C [BEXAROTENE]
[1]
  IC50: > 8 µM
[2]
  IC50: > 8 µM
[3]
  IC50: > 8 µM
[4]
  IC50: > 8 µM
[5]
  IC50: > 8 µM
[6]
  IC50: > 8 µM
[7]
  IC50: > 8 µM
[8]
  IC50: > 8 µM
[9]
  IC50: > 8 µM
[10]
  IC50: > 8 µM
[11]
  IC50: > 8 µM
[12]
  IC50: > 8 µM
[13]
  IC50: > 8 µM
[14]
  IC50: > 8 µM
[15]
  IC50: > 8 µM
[16]
  IC50: > 8 µM
[17]
  IC50: > 8 µM
[18]
  IC50: > 8 µM
[19]
  IC50: > 8 µM
[20]
  IC50: > 8 µM
[21]
  IC50: > 8 µM
[22]
  IC50: > 8 µM
[23]
  IC50: > 8 µM
[24]
  IC50: > 8 µM
[25]
  IC50: > 8 µM
[26]
  IC50: > 8 µM
[27]
  IC50: > 8 µM
[28]
  IC50: > 8 µM
[29]
  IC50: > 8 µM
[30]
  IC50: > 8 µM
[31]
  IC50: > 8 µM
[32]
  IC50: > 8 µM
[33]
  IC50: > 8 µM
[34]
  IC50: > 8 µM
[35]
  IC50: > 8 µM

## CCC/C=C/C=C/C(=O)O[C@H]1/C(=C/C(=O)OC)C[C@H]2C[C@H]([C@@H](C)O)OC(=O)C[C@H](O)C[C@@H]3C[C@H](OC(C)=O)C(C)(C)[C@](O)(C[C@@H]4C/C(=C/C(=O)OC)C[C@H](/C=C/C(C)(C)[C@]1(O)O2)O4)O3 [BRYOSTATIN 1]
[1]
  IC50: > 0.008 µM
[2]
  IC50: > 0.008 µM
[3]
  IC50: > 0.008 µM
[4]
  IC50: > 0.008 µM
[5]
  IC50: > 0.008 µM
[6]
  IC50: > 0.008 µM
[7]
  IC50: > 0.008 µM
[8]
  IC50: > 0.008 µM
[9]
  IC50: > 0.008 µM
[10]
  IC50: > 0.008 µM
[11]
  IC50: 0.00226 µM
[12]
  IC50: > 0.008 µM
[13]
  IC50: > 0.008 µM
[14]
  IC50: > 0.008 µM
[15]
  IC50: > 0.008 µM
[16]
  IC50: > 0.008 µM
[17]
  IC50: > 0.008 µM
[18]
  IC50: > 0.008 µM
[19]
  IC50: > 0.008 µM
[20]
  IC50: > 0.008 µM
[21]
  IC50: > 0.008 µM
[22]
  IC50: > 0.008 µM
[23]
  IC50: > 0.008 µM
[24]
  IC50: > 0.008 µM
[25]
  IC50: > 0.008 µM
[26]
  IC50: > 0.008 µM
[27]
  IC50: > 0.008 µM
[28]
  IC50: > 0.008 µM
[29]
  IC50: > 0.008 µM
[30]
  IC50: > 0.008 µM
[31]
  IC50: > 0.008 µM
[32]
  IC50: > 0.008 µM
[33]
  IC50: > 0.008 µM
[34]
  IC50: > 0.008 µM
[35]
  IC50: > 0.008 µM
